In patent US20260306525A1, “COMBINATION THERAPY GLUCOCORTICOIDS AND GINSENOSIDE” (FYTAGORAS B.V., priority 2023, published 2026):

Columns and labels:
SGK1 = assay: qPCR SGK1 expression in HeLa cells (GR transactivation); format: cell-based, human; details: beclomethasone 1 μM, Rg1 50 μM or combination
Protocol: (§1) HeLa (human cervical cancer) cells were cultured in Dulbecco's Modified Eagle's (DMEM) High Glucose (HG) medium without phenol red supplemented with 10% Fetal Calf Serum (FCS) and 10% Glutamax (Sigma-Aldrich). The cells were maintained at 37° C. and 5% CO2. At 24 h before adding the treatment, the medium was replaced by DMEM HG with 10% charcoal-inactivated serum and 10% Glutamax (Sigma-Aldrich). The cells were exposed to short- and long-term compound treatments. […] Subsequently, TNF-α (10 ng/ml) was added along with the compound treatments for 6 h (this last step was not added in the actinomycin-D and cycloheximide experiments).
(§2) To determine levels of gene expression in zebrafish larvae, 3 dpf larvae were used in both wounded and non-wounded conditions, and after short- and long-term treatments. Groups of 15 larvae were collected in TRIzol reagent (ThermoFisher) and total RNA was isolated using miRNeasy mini kit (Qiagen, Hilden, Germany). For experiments in HeLa cells, cells were seeded in 6 well plates and after treatment, the cells were removed from the wells using TRIzol reagent and mRNA was isolated using miRNeasy mini kit (Qiagen) according to the manufacturer's instructions. The RNA samples were DNAse-treated utilizing the DNA-free™ DNA Removal Kit (ThermoFisher Scientific). The cDNA synthesis was performed using the iScript cDNA synthesis kit (Bio-Rad Laboratories, Hercules, CA, USA) using 1 μg of RNA per sample. For qPCR, 10 μM of forward primer and 10 μM of reverse primer, 12.5 μl of IQ SYBR Green Supermix (Bio-Rad Laboratories), and 2 μl of cDNA were added to the qPCR reaction mixture. […] The qPCR reactions were performed on a MyiQ-single-color real-time PCR detection system (Bio-Rad Laboratories), with initial denaturation for 3 min, 95° C., and 40 cycles of 15 s at 95.5° C., 15 s at 60° C., and 30 s at 72° C. Cycle threshold values (Ct values, i.e. the cycle numbers at which a threshold value of the fluorescence intensity was reached) were determined for each sample. The gene expression level for each sample was normalized using the expression of ppial (peptidylprolyl isomerase Ab (cyclophilin A)) for zebrafish samples, and 18S rRNA for human cells. The fold change per sample (compared to the respective control group) was calculated using the […]Ct method.

GR = molecular target: T1, GR (Homo sapiens, UniProt P04150); assay: nuclear translocation of GR in HeLa cells (immunocytochemistry); format: cell-based; design: nuclear translocation by immunocytochemistry (detected with anti-GR antibody D6H2L); details: 6 h
T1 sequence (P04150 1-777): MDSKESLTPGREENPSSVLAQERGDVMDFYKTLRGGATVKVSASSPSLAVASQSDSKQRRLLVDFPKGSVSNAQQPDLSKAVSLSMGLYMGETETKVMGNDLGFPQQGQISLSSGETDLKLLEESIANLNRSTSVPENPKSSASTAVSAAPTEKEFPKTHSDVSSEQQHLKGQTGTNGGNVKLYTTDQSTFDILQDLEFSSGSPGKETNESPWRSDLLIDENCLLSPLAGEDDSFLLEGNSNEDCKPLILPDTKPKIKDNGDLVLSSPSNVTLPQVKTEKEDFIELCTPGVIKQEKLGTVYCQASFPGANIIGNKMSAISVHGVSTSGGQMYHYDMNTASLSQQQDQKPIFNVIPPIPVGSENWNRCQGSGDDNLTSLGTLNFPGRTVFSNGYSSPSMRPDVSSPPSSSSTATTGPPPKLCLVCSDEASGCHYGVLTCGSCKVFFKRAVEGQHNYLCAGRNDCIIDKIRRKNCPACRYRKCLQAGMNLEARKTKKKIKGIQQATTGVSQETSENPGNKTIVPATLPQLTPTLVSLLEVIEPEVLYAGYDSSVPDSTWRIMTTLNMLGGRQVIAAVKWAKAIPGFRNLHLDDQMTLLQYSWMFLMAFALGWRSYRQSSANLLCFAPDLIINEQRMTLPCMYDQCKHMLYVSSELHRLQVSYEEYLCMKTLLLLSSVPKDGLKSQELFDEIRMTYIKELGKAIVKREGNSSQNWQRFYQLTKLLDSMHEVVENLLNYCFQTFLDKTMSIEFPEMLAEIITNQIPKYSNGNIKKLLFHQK
Protocol: as §1
To determine the nuclear translocation of GR, immunocytochemistry on GR in Hela cells was performed. The cells were seeded in Nunc™ Lab-Tek™ II Chamber Slide™ System (ThermoFisher Scientific), and cultured in DMEM HG (without phenol red) supplemented with 10% charcoal inactivated serum and […] Glutamax (Sigma-Aldrich) for 48 h. […] In each experiment, 40 randomly selected cells from each treatment group were analyzed. The relative nuclear translocation of the GR was quantified by determining the integrated fluorescence intensity in the nucleus and the whole cell using Fiji ImageJ v1.53c, and these values were corrected for the mean background fluorescence. The percentage of nuclear translocation was assessed by determining the corrected density in the nucleus relative to the corrected density in the whole cell (in %).

NFKBIA = assay: qPCR NFKBIA expression in HeLa cells (GR transactivation); format: cell-based, human; details: beclomethasone 1 μM, Rg1 50 μM or combination
Protocol: as §1, §2

MMP9 = assay: qPCR MMP9 expression in HeLa cells; format: cell-based, human; details: beclomethasone 1 μM, Rg1 20 μM or combination; for MMP9 expression, long-term: 30 h
Protocol: as §1
To determine levels of gene expression in zebrafish larvae, 3 dpf larvae were used in both wounded and non-wounded conditions, and after short- and long-term treatments. Groups of 15 larvae were collected in TRIzol reagent (ThermoFisher) and total RNA was isolated using miRNeasy mini kit (Qiagen, Hilden, Germany). For experiments in HeLa cells, cells were seeded in 6 well plates and after treatment, the cells were removed from the wells using TRIzol reagent and mRNA was isolated using miRNeasy mini kit (Qiagen) according to the manufacturer's instructions. The RNA samples were DNAse-treated utilizing the DNA-free™ DNA Removal Kit (ThermoFisher Scientific). The cDNA synthesis was performed using the iScript cDNA synthesis kit (Bio-Rad Laboratories, Hercules, CA, USA) using 1 μg of RNA per sample. For qPCR, 10 μM of forward primer and 10 μM of reverse primer, 12.5 μl of IQ SYBR Green Supermix (Bio-Rad Laboratories), and 2 μl of cDNA were added to the qPCR reaction mixture. […] Cycle threshold values (Ct values, i.e. the cycle numbers at which a threshold value of the fluorescence intensity was reached) were determined for each sample. […] The fold change per sample (compared to the respective control group) was calculated using the […]Ct method.

zebrafish embryos = details: in vivo
Protocol: Fish Embryo Acute Toxicity Test (FET) was performed to determine the tolerated doses of the studied compounds. […] A range of three test concentrations (100, 120, and 150 μM) of Rg1, Rh1, and F1 and (25, 50, and 75M) of PPT was used. […] Stock solutions were made in DMSO, and final dilutions in egg water (60 μg/mL Instant Ocean Sea salts and 0.0025% methylene blue), such that the final DMSO concentration were 0.01%. The following controls were used: a negative control (nC, egg water), a solvent control (sC, 0.01% DMSO in egg water), and positive control (pC), 4 mg/L 3,4-dichloroaniline (Sigma-Aldrich, St. Louis, MO, USA) in egg water.
Embryos were collected around at 1.5 hpf and distributed over standard twenty-four well plates (10 embryos per well), with each well containing 2 mL of test solution. […] Five 24-well plates were prepared, each with 3 wells containing the Rg1, F1, or Rh1 solutions (100, 120, 150 μM), 3 wells containing the PPT (25, 50, and 75 μM), two for nC and sC, and one for pC (on each plate, 7 wells remained empty). All solutions were refreshed daily.
The plates were kept at a temperature between 26 and 27° C. and exposed to a 12 h light and 12 h dark cycle. At 96, and 120 hpf, the average survival rate (in %) for all experimental groups was determined. Additionally, hatching was recorded at 48 and 72 hpf. Survival rates for the studied compound and pC-treated groups from the five individual plates were averaged.

CC(C)=CCC[C@](C)(O[C@@H]1O[C@H](CO)[C@@H](O)[C@H](O)[C@H]1O)[C@H]1CC[C@]2(C)[C@@H]1[C@H](O)C[C@@H]1[C@@]3(C)CC[C@H](O)C(C)(C)[C@@H]3[C@@H](O[C@@H]3O[C@H](CO)[C@@H](O)[C@H](O)[C@H]3O)C[C@]12C [Rg1, (3β,6α, 12β)-3,12-Dihydroxydammar-24-ene-6,20-diyl bis-β-D-glucopyranoside]
SGK1 expression, long-term (SGK1): did not affect the expression of these genes
SGK1 expression, short-term (SGK1): did not affect the expression of these genes
nuclear translocation level of GR (GR; Rg1 5, 10 and 20 μM, vs vehicle): only increased the translocation level compared to the vehicle treatment at 20 μM, still inducing only partial translocation
NFKBIA expression, long-term (NFKBIA): did not affect the expression of these genes
NFKBIA expression, short-term (NFKBIA): did not affect the expression of these genes
MMP9 expression, short-term (MMP9; 6 h): slightly suppressed
MMP9 expression, long-term (MMP9): more strongly after long-term treatment

C[C@H]1C[C@H]2[C@@H]3CCC4=CC(=O)C=C[C@]4(C)[C@@]3(Cl)[C@@H](O)C[C@]2(C)[C@@]1(O)C(=O)CO [beclomethasone, reference compound]
SGK1 expression, long-term (SGK1): reduced over time
SGK1 expression, short-term (SGK1): strongly increased the expression of these genes after short-term treatment
nuclear translocation level of GR (GR; beclomethasone 0.01 μM, vs vehicle): significantly increased the translocation level compared to vehicle
nuclear translocation level of GR (GR; beclomethasone 0.1 and 1 μM): maximal nuclear translocation was observed
NFKBIA expression, long-term (NFKBIA): reduced over time
NFKBIA expression, short-term (NFKBIA): strongly increased the expression of these genes after short-term treatment
MMP9 expression, long-term (MMP9): the suppressive effects of beclomethasone were significantly reduced after long-term treatment

CC(C)=CCC[C@](C)(O[C@@H]1O[C@H](CO)[C@@H](O)[C@H](O)[C@H]1O)[C@H]1CC[C@]2(C)[C@@H]1[C@H](O)C[C@@H]1[C@@]3(C)CC[C@H](O)C(C)(C)[C@@H]3[C@@H](O)C[C@]12C [F1]
concentration until which no effects on hatching and survival were observed (zebrafish embryos): 100 µM
concentration with minimal effects on hatching and survival (zebrafish embryos): 120 µM

CC(C)=CCC[C@](C)(O)[C@H]1CC[C@]2(C)[C@@H]1[C@H](O)C[C@@H]1[C@@]3(C)CC[C@H](O)C(C)(C)[C@@H]3[C@@H](O)C[C@]12C [PPT, Protopanaxatriol]
concentration until which no effects on hatching and survival were observed (zebrafish embryos): 50 µM
concentration with considerable effects on hatching and survival (zebrafish embryos): 75 µM
